Legend:
[1] = biological target: human CXCR3A (Homo sapiens (Human), UniProt P49682); assay: FLIPR assay; type: cell-based; settings: CHO-K1 cells expressing the human CXCR3A coupled to Galpha(16); CXCL10 agonist 20 nM; Fluo-4-AM fluorescence; mean values if determined several times
Method in brief: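 CHO-K1 cells expressing CXCR3A coupled to Gα16 were loaded with Fluo-4-AM for 1 h in Hepes-buffered HBSS, pH 7.4, with 5 mM probenecid. Compound dilutions were added on the FLIPR, followed by CXCL10 (added as a 20 nM solution). Baseline-subtracted peak fluorescence was fitted to a single-site curve for IC50.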

[2] = biological target: CXCR3 (Homo sapiens (Human), UniProt P49682); assay: Receptor internalization assay; type: cell-based; settings: human whole blood; final CXCL10 concentration 9 nM; 30 min 37° C.; CXCR3 cell surface expression on CD3 positive cells, flow cytometer; read-out: Internalization IC50
Method in brief: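 In human whole blood, compounds were incubated with CXCL10 (9 nM final) for 30 min at 37 °C to drive receptor internalization, then stained with anti-CXCR3/CD3 antibodies and lysed of red cells. Flow cytometry measured mean surface CXCR3 fluorescence on CD3+ cells, and IC50 came from single-site dose-response fits.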

human CXCR3A, sequence (P49682 whole entry): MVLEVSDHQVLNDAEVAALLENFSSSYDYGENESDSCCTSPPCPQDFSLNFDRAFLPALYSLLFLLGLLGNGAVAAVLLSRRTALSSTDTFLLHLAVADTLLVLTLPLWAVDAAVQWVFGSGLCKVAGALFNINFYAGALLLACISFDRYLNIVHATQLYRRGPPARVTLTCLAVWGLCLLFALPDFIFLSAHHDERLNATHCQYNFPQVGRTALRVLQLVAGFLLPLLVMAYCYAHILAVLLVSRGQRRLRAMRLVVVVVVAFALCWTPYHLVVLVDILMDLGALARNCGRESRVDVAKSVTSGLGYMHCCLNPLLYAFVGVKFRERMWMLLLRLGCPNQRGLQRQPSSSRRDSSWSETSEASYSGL
CXCR3, sequence (P49682 whole entry): as above

SMILES: COC(=O)c1ccc2[nH]c(-c3nc(C(F)(F)F)sc3N3CCN(C(=O)Cn4cnc5cccnc54)[C@H](C)C3)nc2c1 [Example 167, 2-{5-[(R)-4-(2-Imidazo[4,5-b]pyridin-3-yl-acetyl)-3-methyl-piperazin-1-yl]-2-trifluoromethyl-thiazol-4-yl}-1H-benzoimidazole-5-carboxylic acid methyl ester]
- IC50 [1]: 1 nM
- IC50 [2]: 140 nM

SMILES: C[C@@H]1CN(c2sc(C(F)(F)F)nc2-c2nc3cc(C4(O)CC4)ccc3[nH]2)CCN1C(=O)Cn1cnc2cccnc21 [Example 168, 1-((R)-4-{4-[5-(1-Hydroxy-cyclopropyl)-1H-benzoimidazol-2-yl]-2-trifluoromethyl-thiazol-5-yl}-2-methyl-piperazin-1-yl)-2-imidazo[4,5-b]pyridin-3-yl-ethanone]
- IC50 [1]: 3 nM
- IC50 [2]: 435 nM

SMILES: C[C@@H]1CN(c2sc(C(F)(F)F)nc2-c2nc3cccnc3[nH]2)CCN1C(=O)Cn1cnc2cccnc21 [Example 169, 2-Imidazo[4,5-b]pyridin-3-yl-1-{(R)-4-[4-(3H-imidazo[4,5-b]pyridin-2-yl)-2-trifluoromethyl-thiazol-5-yl]-2-methyl-piperazin-1-yl}-ethanone]
- IC50 [1]: 0.3 nM
- IC50 [2]: 685 nM

SMILES: C[C@@H]1CN(c2sc(C(F)(F)F)nc2-c2nc3ccncc3[nH]2)CCN1C(=O)Cn1cnc2cccnc21 [Example 170, 2-Imidazo[4,5-b]pyridin-3-yl-1-{(R)-4-[4-(3H-imidazo[4,5-c]pyridin-2-yl)-2-trifluoromethyl-thiazol-5-yl]-2-methyl-piperazin-1-yl}-ethanone]
- IC50 [1]: 6 nM
- IC50 [2]: 1060 nM

SMILES: C[C@@H]1CN(c2sc(C(F)(F)F)nc2-c2nc3cncnc3[nH]2)CCN1C(=O)Cn1cnc2cccnc21 [Example 171, 2-Imidazo[4,5-b]pyridin-3-yl-1-{(R)-2-methyl-4-[4-(9H-purin-8-yl)-2-trifluoromethyl-thiazol-5-yl]-piperazin-1-yl}-ethanone]
- IC50 [1]: 1 nM
- IC50 [2]: 1080 nM

SMILES: C[C@@H]1CN(c2sc(C(F)(F)F)nc2-c2nc3ccccc3[nH]2)CCN1C(=O)Cn1cnc2ccccc21 [Example 172, 2-Benzoimidazol-1-yl-1-{(R)-4-[4-(1H-benzoimidazol-2-yl)-2-trifluoromethyl-thiazol-5-yl]-2-methyl-piperazin-1-yl}-ethanone]
- IC50 [1]: 1 nM
- IC50 [2]: 73 nM

SMILES: C[C@@H]1CN(c2sc(C(F)(F)F)nc2-c2nc3ccccc3[nH]2)CCN1C(=O)Cn1cccn1 [Example 173, 1-{(R)-4-[4-(1H-Benzoimidazol-2-yl)-2-trifluoromethyl-thiazol-5-yl]-2-methyl-piperazin-1-yl}-2-pyrazol-1-yl-ethanone]
- IC50 [1]: 0.5 nM
- IC50 [2]: 395 nM

SMILES: Cc1ccn(CC(=O)N2CCN(c3sc(C(F)(F)F)nc3-c3nc4ccccc4[nH]3)C[C@H]2C)n1 [Example 174, 1-{(R)-4-[4-(1H-Benzoimidazol-2-yl)-2-trifluoromethyl-thiazol-5-yl]-2-methyl-piperazin-1-yl}-2-(3-methyl-pyrazol-1-yl)-ethanone]
- IC50 [1]: 0.2 nM
- IC50 [2]: 53 nM

SMILES: C[C@@H]1CN(c2sc(C(F)(F)F)nc2-c2nc3ccccc3[nH]2)CCN1C(=O)Cn1cc(Cl)cn1 [Example 175, 1-{(R)-4-[4-(1H-Benzoimidazol-2-yl)-2-trifluoromethyl-thiazol-5-yl]-2-methyl-piperazin-1-yl}-2-(4-chloro-pyrazol-1-yl)-ethanone]
- IC50 [1]: 0.1 nM
- IC50 [2]: 227 nM

SMILES: Cc1ccnn1CC(=O)N1CCN(c2sc(C(F)(F)F)nc2-c2nc3ccccc3[nH]2)C[C@H]1C [Example 176, 1-{(R)-4-[4-(1H-Benzoimidazol-2-yl)-2-trifluoromethyl-thiazol-5-yl]-2-methyl-piperazin-1-yl}-2-(5-methyl-pyrazol-1-yl)-ethanone]
- IC50 [1]: 0.1 nM
- IC50 [2]: 111 nM

SMILES: Cc1nc(C)n(CC(=O)N2CCN(c3sc(C(F)(F)F)nc3-c3nc4ccccc4[nH]3)C[C@H]2C)n1 [Example 178, 1-{(R)-4-[4-(1H-Benzoimidazol-2-yl)-2-trifluoromethyl-thiazol-5-yl]-2-methyl-piperazin-1-yl}-2-(3,5-dimethyl-[1,2,4]triazol-1-yl)-ethanone]
- IC50 [1]: 2 nM
- IC50 [2]: 224 nM

SMILES: C[C@@H]1CN(c2sc(C(F)(F)F)nc2-c2nc3ccc(N4CCN(C)CC4)cc3[nH]2)CCN1C(=O)Cn1cccn1 [Example 179, 1-((R)-2-Methyl-4-{4-[6-(4-methyl-piperazin-1-yl)-1H-benzoimidazol-2-yl]-2-trifluoromethyl-thiazol-5-yl}-piperazin-1-yl)-2-pyrazol-1-yl-ethanone]
- IC50 [1]: 2 nM
- IC50 [2]: 138 nM

SMILES: C[C@@H]1CN(c2sc(C(F)(F)F)nc2-c2nc3ccc(N(C)C)cc3[nH]2)CCN1C(=O)Cn1cccn1 [Example 180, 1-{(R)-4-[4-(6-Dimethylamino-1H-benzoimidazol-2-yl)-2-trifluoromethyl-thiazol-5-yl]-2-methyl-piperazin-1-yl}-2-pyrazol-1-yl-ethanone]
- IC50 [1]: 2 nM
- IC50 [2]: 703 nM

SMILES: C[C@@H]1CN(c2sc(C(F)(F)F)nc2-c2nc3ccc(CN4CCCCC4)cc3[nH]2)CCN1C(=O)Cn1cccn1 [Example 181, 1-{(R)-2-Methyl-4-[4-(6-piperidin-1-ylmethyl-1H-benzoimidazol-2-yl)-2-trifluoromethyl-thiazol-5-yl]-piperazin-1-yl}-2-pyrazol-1-yl-ethanone]
- IC50 [1]: 58 nM
- IC50 [2]: 3090 nM

SMILES: C[C@@H]1CN(c2sc(C(F)(F)F)nc2-c2nc3ccc(CN(C)C)cc3[nH]2)CCN1C(=O)Cn1cccn1 [Example 182, 1-{(R)-4-[4-(6-Dimethylaminomethyl-1H-benzoimidazol-2-yl)-2-trifluoromethyl-thiazol-5-yl]-2-methyl-piperazin-1-yl}-2-pyrazol-1-yl-ethanone]
- IC50 [1]: 27 nM
- IC50 [2]: 2240 nM

SMILES: COC1CCN(Cc2ccc3nc(-c4nc(C(F)(F)F)sc4N4CCN(C(=O)Cn5cccn5)[C@H](C)C4)[nH]c3c2)C1 (stereo partly drawn) [Example 183, 1-((R)-4-{4-[6-(3-Methoxy-pyrrolidin-1-ylmethyl)-1H-benzoimidazol-2-yl]-2-trifluoromethyl-thiazol-5-yl}-2-methyl-piperazin-1-yl)-2-pyrazol-1-yl-ethanone]
- IC50 [1]: 15 nM
- IC50 [2]: 1440 nM

SMILES: C[C@@H]1CN(c2sc(C(F)(F)F)nc2-c2nc3ccccc3n2C)CCN1C(=O)Cn1cccn1 [Example 184, 1-{(R)-2-Methyl-4-[4-(1-methyl-1H-benzoimidazol-2-yl)-2-trifluoromethyl-thiazol-5-yl]-piperazin-1-yl}-2-pyrazol-1-yl-ethanone]
- IC50 [1]: 53 nM
- IC50 [2]: 3420 nM

SMILES: COCCn1c(-c2nc(C(F)(F)F)sc2N2CCN(C(=O)Cn3cccn3)[C@H](C)C2)nc2ccccc21 [Example 185, 1-((R)-4-{4-[1-(2-Methoxy-ethyl)-1H-benzoimidazol-2-yl]-2-trifluoromethyl-thiazol-5-yl}-2-methyl-piperazin-1-yl)-2-pyrazol-1-yl-ethanone]
- IC50 [1]: 37 nM
- IC50 [2]: 6620 nM

SMILES: C[C@@H]1CN(c2scnc2-c2nc3ccccc3[nH]2)CCN1C(=O)Cc1ccccc1-n1nccn1 [Example 186, 1-{(R)-4-[4-(1H-Benzoimidazol-2-yl)-thiazol-5-yl]-2-methyl-piperazin-1-yl}-2-(2-[1,2,3]triazol-2-yl-phenyl)-ethanone]
- IC50 [1]: 4 nM
- IC50 [2]: 1610 nM

SMILES: C[C@@H]1CN(c2scnc2-c2nc3ccccc3[nH]2)CCN1C(=O)CN1C(=O)C(F)(F)c2ccccc21 [Example 187, 1-(2-{(R)-4-[4-(1H-Benzoimidazol-2-yl)-thiazol-5-yl]-2-methyl-piperazin-1-yl}-2-oxo-ethyl)-3,3-difluoro-1,3-dihydro-indol-2-one]
- IC50 [1]: 0.3 nM
- IC50 [2]: 1110 nM

SMILES: C[C@@H]1CN(c2scnc2-c2nc3ccccc3[nH]2)CCN1C(=O)Cn1cc(-c2ccccc2)nn1 [Example 188, 1-{(R)-4-[4-(1H-Benzoimidazol-2-yl)-thiazol-5-yl]-2-methyl-piperazin-1-yl}-2-(4-phenyl-[1,2,3]triazol-1-yl)-ethanone]
- IC50 [1]: 4 nM
- IC50 [2]: 3820 nM

SMILES: C[C@@H]1CN(c2sc(C(F)(F)F)nc2-c2nc3ccccc3[nH]2)CCN1C(=O)Cn1cc(-c2ccccc2)nn1 [Example 189, 1-{(R)-4-[4-(1H-Benzoimidazol-2-yl)-2-trifluoromethyl-thiazol-5-yl]-2-methyl-piperazin-1-yl}-2-(4-phenyl-[1,2,3]triazol-1-yl)-ethanone]
- IC50 [1]: 2 nM
- IC50 [2]: 1760 nM

SMILES: C[C@@H]1CN(c2sc(C(F)(F)F)nc2-c2nc3ccccc3[nH]2)CCN1C(=O)Cc1cccc2cccnc12 [Example 190, 1-{(R)-4-[4-(1H-Benzoimidazol-2-yl)-2-trifluoromethyl-thiazol-5-yl]-2-methyl-piperazin-1-yl}-2-quinolin-8-yl-ethanone]
- IC50 [1]: 1 nM
- IC50 [2]: 514 nM

SMILES: Cc1cnn(CC(=O)N2CCN(c3sc(C(F)(F)F)nc3-c3nc4ccccc4[nH]3)C[C@H]2C)c1 [Example 191, 1-{(R)-4-[4-(1H-Benzoimidazol-2-yl)-2-trifluoromethyl-thiazol-5-yl]-2-methyl-piperazin-1-yl}-2-(4-methyl-pyrazol-1-yl)-ethanone]
- IC50 [1]: 1 nM
- IC50 [2]: 470 nM

SMILES: Cc1cc(C)n(CC(=O)N2CCN(c3sc(C(F)(F)F)nc3-c3nc4ccccc4[nH]3)C[C@H]2C)n1 [Example 192, 1-{(R)-4-[4-(1H-Benzoimidazol-2-yl)-2-trifluoromethyl-thiazol-5-yl]-2-methyl-piperazin-1-yl}-2-(3,5-dimethyl-pyrazol-1-yl)-ethanone]
- IC50 [1]: 1 nM
- IC50 [2]: 116 nM

Source: patent US9266876B2 (Actelion Pharmaceuticals Ltd., priority 2012, dated 2016)
